From ChEMBL document CHEMBL5291721, “A preclinical secondary pharmacology resource illuminates target-adverse drug reaction associations of marketed drugs” (Nat Commun, 2023) come the findings set out here.

The term AC50 denotes the concentration giving half of the maximal activity seen.

Among the targets are Melanocortin receptor 3 (Homo sapiens, UniProt P41968); Melanocortin receptor 4 (Homo sapiens, UniProt P32245); Mu-type opioid receptor (Homo sapiens, UniProt P35372); D(3) dopamine receptor (Homo sapiens, UniProt P35462); Histamine H1 receptor (Homo sapiens, UniProt P35367).
Assay [1] has as its target T1, Type-1 angiotensin II receptor (Homo sapiens, UniProt P30556).
T1 sequence (P30556 whole entry): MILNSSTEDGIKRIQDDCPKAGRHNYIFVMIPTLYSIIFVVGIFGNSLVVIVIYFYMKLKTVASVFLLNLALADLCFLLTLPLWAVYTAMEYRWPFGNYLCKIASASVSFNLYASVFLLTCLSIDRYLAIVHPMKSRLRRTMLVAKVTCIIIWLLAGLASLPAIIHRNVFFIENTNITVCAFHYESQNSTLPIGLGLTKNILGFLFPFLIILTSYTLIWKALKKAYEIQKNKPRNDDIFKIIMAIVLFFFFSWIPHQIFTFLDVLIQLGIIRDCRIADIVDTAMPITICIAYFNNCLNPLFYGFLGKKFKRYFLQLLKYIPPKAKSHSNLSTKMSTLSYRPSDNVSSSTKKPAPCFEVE

For assay [2], the target named is T2, Muscarinic acetylcholine receptor M2 (Homo sapiens, UniProt P08172).
T2 sequence (P08172 whole entry): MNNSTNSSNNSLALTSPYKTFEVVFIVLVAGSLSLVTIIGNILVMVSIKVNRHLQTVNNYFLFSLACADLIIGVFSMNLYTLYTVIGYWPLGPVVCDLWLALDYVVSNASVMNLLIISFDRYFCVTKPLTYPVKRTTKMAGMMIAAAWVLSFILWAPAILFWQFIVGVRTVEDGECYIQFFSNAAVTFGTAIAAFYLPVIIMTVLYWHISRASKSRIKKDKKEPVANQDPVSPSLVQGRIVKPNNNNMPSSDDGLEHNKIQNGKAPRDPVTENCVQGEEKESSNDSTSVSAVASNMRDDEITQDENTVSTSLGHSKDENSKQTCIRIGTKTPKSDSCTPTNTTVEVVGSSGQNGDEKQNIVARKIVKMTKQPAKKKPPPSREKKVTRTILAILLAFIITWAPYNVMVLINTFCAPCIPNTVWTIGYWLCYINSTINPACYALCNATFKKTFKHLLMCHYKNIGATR
The assay is classed as functional, cell-based.

For assay [3], the target named is T3, Cannabinoid receptor 1 (Homo sapiens, UniProt P21554).
In a further assay the target is D(1A) dopamine receptor (Homo sapiens, UniProt P21728). The assay is classed as functional, cell-based.
The target of assay [4] is Voltage-gated inwardly rectifying potassium channel KCNH2 (Homo sapiens, UniProt Q12809). The assay is classed as functional. The note with it: read-out: AC50.
For the next assay, the target named is T4, Glucocorticoid receptor (Homo sapiens, UniProt P04150).
T4 sequence (P04150 whole entry): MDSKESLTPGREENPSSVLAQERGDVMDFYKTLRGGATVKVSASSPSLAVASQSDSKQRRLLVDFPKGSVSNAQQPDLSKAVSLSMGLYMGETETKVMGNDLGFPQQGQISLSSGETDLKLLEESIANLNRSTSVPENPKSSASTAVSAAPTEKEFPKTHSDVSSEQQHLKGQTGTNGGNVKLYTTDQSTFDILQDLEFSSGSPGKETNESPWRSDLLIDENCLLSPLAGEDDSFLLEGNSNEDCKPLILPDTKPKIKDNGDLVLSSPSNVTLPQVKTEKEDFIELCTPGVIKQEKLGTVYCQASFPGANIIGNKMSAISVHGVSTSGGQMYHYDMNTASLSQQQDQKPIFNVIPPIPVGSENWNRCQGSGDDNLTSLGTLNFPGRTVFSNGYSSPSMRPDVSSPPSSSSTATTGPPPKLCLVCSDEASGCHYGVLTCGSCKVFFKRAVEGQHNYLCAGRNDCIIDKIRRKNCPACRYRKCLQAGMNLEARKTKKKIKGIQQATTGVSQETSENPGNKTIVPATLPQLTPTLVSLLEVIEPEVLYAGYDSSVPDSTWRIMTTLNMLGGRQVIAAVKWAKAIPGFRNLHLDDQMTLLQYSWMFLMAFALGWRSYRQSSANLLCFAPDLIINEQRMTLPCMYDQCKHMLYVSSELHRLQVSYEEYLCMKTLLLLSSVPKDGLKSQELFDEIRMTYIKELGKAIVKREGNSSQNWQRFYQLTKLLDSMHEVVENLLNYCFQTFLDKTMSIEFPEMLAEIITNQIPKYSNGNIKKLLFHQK

The target in assay [5] is 3',5'-cyclic-AMP phosphodiesterase 4D (Homo sapiens, UniProt Q08499). The format is functional.
The target of another assay is T5, Endothelin-1 receptor (Homo sapiens, UniProt P25101).
T5 sequence (P25101 whole entry): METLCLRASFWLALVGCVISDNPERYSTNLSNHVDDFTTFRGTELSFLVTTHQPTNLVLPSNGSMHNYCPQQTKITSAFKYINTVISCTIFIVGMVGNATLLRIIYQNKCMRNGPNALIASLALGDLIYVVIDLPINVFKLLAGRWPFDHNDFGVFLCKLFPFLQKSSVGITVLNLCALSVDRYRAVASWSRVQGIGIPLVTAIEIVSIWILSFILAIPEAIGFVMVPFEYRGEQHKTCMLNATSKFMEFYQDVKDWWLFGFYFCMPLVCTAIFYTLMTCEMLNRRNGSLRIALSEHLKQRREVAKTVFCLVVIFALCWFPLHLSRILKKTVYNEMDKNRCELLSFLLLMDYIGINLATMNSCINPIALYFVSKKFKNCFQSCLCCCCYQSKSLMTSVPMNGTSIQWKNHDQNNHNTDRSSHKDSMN

Assay [6] concerns the target 5-hydroxytryptamine receptor 2A (Homo sapiens, UniProt P28223). The assay is classed as functional, cell-based.
For assay [7], the target named is T3, Cannabinoid receptor 1. The format is functional, cell-based.
Note: assay procedure not described here.

5-hydroxytryptamine receptor 2A, sequence (P28223 whole entry): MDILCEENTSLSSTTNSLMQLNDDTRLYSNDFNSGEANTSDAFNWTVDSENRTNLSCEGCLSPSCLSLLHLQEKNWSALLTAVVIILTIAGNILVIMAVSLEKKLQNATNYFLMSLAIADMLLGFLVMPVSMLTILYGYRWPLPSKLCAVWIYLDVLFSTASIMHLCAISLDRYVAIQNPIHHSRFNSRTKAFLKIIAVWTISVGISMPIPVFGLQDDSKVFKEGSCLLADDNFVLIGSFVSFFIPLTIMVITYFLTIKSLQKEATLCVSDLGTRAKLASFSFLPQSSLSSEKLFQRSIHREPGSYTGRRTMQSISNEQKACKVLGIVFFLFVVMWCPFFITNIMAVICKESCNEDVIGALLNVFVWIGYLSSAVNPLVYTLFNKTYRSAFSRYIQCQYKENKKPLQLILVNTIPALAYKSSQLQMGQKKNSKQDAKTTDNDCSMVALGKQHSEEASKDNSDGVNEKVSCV
D(1A) dopamine receptor, sequence (P21728 whole entry): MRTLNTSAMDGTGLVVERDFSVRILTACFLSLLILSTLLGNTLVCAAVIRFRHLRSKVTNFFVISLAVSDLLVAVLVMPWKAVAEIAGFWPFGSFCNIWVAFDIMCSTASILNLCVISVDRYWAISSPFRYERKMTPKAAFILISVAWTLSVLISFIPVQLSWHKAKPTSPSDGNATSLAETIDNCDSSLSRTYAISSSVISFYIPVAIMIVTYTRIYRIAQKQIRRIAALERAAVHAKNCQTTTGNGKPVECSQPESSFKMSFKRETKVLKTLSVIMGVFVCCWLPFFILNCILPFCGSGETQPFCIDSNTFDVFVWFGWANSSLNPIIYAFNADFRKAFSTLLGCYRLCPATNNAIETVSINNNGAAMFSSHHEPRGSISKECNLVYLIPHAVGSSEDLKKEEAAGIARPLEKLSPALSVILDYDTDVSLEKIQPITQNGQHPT
Voltage-gated inwardly rectifying potassium channel KCNH2, sequence (Q12809 whole entry): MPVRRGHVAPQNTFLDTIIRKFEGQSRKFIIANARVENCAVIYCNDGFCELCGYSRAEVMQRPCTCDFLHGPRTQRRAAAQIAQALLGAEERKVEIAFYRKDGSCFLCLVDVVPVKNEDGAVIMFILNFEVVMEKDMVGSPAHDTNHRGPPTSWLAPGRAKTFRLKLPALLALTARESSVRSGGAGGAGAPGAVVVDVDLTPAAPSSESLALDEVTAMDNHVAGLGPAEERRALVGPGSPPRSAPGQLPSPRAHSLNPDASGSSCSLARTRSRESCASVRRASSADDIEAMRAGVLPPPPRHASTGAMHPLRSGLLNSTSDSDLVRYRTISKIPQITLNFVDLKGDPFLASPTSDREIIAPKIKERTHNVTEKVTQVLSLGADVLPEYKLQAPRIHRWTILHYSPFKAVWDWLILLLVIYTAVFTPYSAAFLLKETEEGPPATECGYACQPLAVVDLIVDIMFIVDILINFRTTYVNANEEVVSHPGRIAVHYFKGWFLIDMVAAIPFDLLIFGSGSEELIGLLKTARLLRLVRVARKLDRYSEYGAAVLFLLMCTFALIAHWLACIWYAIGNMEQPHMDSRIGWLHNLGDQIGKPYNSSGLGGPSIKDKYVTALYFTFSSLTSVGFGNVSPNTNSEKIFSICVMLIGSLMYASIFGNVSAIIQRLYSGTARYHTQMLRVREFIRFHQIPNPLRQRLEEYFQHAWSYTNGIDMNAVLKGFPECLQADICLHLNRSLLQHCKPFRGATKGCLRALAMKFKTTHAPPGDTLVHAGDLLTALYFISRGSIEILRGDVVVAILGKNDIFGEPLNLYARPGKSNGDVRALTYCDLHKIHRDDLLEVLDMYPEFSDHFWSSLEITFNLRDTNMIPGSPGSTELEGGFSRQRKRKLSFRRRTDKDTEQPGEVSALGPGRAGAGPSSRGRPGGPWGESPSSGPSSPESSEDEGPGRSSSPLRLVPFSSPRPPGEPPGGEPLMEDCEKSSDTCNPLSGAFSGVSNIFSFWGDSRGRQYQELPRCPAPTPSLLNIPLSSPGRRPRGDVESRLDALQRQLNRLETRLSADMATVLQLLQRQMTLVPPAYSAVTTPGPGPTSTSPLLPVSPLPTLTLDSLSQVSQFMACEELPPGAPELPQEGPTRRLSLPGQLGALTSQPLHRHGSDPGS
Melanocortin receptor 3, sequence (P41968 whole entry): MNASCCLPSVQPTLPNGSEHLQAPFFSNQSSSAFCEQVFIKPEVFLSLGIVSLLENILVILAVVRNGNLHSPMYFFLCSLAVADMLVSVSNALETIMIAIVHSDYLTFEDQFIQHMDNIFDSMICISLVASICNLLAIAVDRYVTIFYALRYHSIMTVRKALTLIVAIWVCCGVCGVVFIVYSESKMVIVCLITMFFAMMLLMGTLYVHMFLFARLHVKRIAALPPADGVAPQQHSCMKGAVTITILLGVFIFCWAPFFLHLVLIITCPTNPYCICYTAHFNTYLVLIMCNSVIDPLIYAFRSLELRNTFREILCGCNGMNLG
T3 sequence (P21554 whole entry): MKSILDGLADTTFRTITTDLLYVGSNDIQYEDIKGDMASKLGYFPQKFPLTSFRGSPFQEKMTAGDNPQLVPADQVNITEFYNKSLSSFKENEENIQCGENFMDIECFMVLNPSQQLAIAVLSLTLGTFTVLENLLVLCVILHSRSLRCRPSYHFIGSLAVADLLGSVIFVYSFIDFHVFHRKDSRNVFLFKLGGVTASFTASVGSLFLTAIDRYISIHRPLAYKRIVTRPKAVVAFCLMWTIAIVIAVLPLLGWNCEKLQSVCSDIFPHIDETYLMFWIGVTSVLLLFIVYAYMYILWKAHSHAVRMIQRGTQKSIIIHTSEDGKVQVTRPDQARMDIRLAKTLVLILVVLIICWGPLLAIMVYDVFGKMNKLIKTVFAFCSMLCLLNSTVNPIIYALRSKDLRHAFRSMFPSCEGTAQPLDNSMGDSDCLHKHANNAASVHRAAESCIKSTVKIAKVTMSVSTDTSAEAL
D(3) dopamine receptor, sequence (P35462 whole entry): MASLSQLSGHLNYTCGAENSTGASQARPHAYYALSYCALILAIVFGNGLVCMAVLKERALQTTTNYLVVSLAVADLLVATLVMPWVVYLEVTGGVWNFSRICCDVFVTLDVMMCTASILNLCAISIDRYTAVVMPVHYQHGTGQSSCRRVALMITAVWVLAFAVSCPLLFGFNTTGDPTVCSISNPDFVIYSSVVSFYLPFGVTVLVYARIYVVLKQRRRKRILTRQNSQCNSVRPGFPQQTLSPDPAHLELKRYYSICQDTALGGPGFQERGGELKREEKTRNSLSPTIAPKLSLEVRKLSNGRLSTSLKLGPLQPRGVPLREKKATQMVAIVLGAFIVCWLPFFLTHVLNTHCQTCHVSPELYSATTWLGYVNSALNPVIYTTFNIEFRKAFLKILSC
3',5'-cyclic-AMP phosphodiesterase 4D, sequence (Q08499 whole entry): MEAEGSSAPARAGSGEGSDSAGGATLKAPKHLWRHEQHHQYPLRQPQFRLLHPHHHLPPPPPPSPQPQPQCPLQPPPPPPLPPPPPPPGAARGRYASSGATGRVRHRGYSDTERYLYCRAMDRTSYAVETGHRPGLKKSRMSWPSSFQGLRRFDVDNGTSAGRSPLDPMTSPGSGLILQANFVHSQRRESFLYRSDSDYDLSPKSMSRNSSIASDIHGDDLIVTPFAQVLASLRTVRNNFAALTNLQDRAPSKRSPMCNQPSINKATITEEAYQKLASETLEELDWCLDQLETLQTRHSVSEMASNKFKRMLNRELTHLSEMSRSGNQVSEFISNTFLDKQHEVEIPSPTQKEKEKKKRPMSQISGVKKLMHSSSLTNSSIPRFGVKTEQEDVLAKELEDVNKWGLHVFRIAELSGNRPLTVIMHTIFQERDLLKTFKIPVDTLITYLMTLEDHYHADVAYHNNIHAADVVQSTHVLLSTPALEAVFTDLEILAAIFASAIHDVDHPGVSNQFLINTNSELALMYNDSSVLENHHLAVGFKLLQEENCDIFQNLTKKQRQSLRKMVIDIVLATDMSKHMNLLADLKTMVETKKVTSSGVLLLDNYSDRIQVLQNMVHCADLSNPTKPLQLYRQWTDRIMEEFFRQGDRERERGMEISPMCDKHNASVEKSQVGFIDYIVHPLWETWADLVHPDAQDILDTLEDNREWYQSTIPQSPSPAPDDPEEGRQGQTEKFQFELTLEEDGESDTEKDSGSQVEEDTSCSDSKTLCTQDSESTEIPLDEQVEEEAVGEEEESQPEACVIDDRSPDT
Mu-type opioid receptor, sequence (P35372 whole entry): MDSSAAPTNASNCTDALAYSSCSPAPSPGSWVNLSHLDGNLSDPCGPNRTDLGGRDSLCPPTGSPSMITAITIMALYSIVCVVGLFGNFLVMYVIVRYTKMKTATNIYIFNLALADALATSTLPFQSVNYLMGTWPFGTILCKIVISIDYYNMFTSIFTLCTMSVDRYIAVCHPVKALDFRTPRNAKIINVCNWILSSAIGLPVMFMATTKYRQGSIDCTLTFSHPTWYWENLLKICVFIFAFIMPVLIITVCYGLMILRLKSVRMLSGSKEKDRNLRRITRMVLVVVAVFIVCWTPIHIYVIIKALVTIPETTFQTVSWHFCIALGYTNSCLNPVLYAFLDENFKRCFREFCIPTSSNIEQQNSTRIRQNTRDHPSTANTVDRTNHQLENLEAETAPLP
Melanocortin receptor 4, sequence (P32245 whole entry): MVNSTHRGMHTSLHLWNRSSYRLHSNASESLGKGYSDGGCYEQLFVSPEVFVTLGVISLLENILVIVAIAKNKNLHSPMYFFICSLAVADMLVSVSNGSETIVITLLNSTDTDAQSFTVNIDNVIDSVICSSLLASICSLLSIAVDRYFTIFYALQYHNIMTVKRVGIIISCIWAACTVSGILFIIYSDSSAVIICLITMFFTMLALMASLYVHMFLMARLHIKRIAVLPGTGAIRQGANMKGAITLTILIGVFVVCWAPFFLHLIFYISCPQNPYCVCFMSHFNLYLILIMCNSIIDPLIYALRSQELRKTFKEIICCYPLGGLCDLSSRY

With `COc1ccccc1OCC(O)COC(N)=O` (stereo not given) [METHOCARBAMOL], the AC50 in assay [1] is more than 30 µM; in assay [2], more than 10 µM; at Cannabinoid receptor 1 [3] it was more than 10 µM; on D(1A) dopamine receptor, more than 10 µM; in assay [4] it was more than 30 µM; on Melanocortin receptor 3 it was more than 10 µM. Besides, the AC50 is more than 10 µM on Melanocortin receptor 4; more than 30 µM on Glucocorticoid receptor; more than 30 µM in [5]; more than 30 µM at Mu-type opioid receptor; more than 30 µM at D(3) dopamine receptor.
With `CC(=O)O[C@@]12CO[C@@H]1C[C@H](O)[C@@]1(C)C(=O)[C@H](O)C3=C(C)[C@@H](OC(=O)[C@H](O)[C@@H](NC(=O)OC(C)(C)C)c4ccccc4)C[C@@](O)([C@@H](OC(=O)c4ccccc4)[C@H]21)C3(C)C` [DOCETAXEL ANHYDROUS], the AC50 (in [1]; in assay [2]; on Cannabinoid receptor 1 [3]; at D(1A) dopamine receptor; in [4]; at Melanocortin receptor 3) was more than 30 µM each time. The AC50 (at Melanocortin receptor 4; on Glucocorticoid receptor; in [5]; at D(3) dopamine receptor) was more than 30 µM throughout.
`CC[C@]1(O)C[C@@H]2CN(CCc3c([nH]c4ccccc34)[C@@](C(=O)OC)(c3cc4c(cc3OC)N(C)[C@H]3[C@@](O)(C(N)=O)[C@H](O)[C@]5(CC)C=CCN6CC[C@]43[C@@H]65)C2)C1` [VINDESINE]: the AC50 is more than 30 µM in assay [1]; more than 30 µM in [2]; more than 30 µM at Cannabinoid receptor 1 [3]; more than 30 µM at D(1A) dopamine receptor; more than 30 µM at Endothelin-1 receptor; 14.9 µM in assay [4]. Further, the AC50 (on Melanocortin receptor 3; at Glucocorticoid receptor; in [5]; on D(3) dopamine receptor) was more than 30 µM in each case.
With `CN1CC[C@]23CCCC[C@H]2[C@H]1Cc1ccc(O)cc13` [LEVORPHANOL], the AC50 in assay [1] was more than 10 µM; in [2], more than 10 µM; at Cannabinoid receptor 1 [3], more than 10 µM; at D(1A) dopamine receptor, more than 30 µM; at Histamine H1 receptor, more than 30 µM; in [6], more than 10 µM. Besides, the AC50 in [4] is 13.4 µM; on Melanocortin receptor 3, more than 10 µM; on Melanocortin receptor 4 it was more than 10 µM; in assay [5], more than 30 µM; at D(3) dopamine receptor, more than 30 µM.
As to `CN1CCN(C(=O)OC2c3nccnc3C(=O)N2c2ccc(Cl)cn2)CC1` (stereo not given) [ZOPICLONE], the AC50 is more than 30 µM in assay [1]; more than 10 µM in assay [2]; more than 30 µM at Cannabinoid receptor 1 [7]; more than 10 µM on D(1A) dopamine receptor; more than 30 µM at Endothelin-1 receptor; more than 30 µM on Histamine H1 receptor. The AC50 is more than 30 µM in assay [6]; more than 30 µM in assay [4]; more than 30 µM on Melanocortin receptor 3; more than 30 µM at Melanocortin receptor 4; more than 30 µM in assay [5]; more than 10 µM at Mu-type opioid receptor. Further, on D(3) dopamine receptor, the AC50 was more than 10 µM.
Regarding `O=C(OCCN1CCOCC1)c1cccnc1Nc1cccc(C(F)(F)F)c1` [MORNIFLUMATE], the AC50 (in assay [1]; in assay [2]; on Cannabinoid receptor 1 [7]; on D(1A) dopamine receptor; at Endothelin-1 receptor; on Histamine H1 receptor) was more than 30 µM each time. Moreover, the AC50 is more than 30 µM in assay [6]; 4.35 µM in [4]; more than 30 µM at Melanocortin receptor 3; more than 30 µM on Glucocorticoid receptor; 4.3 µM in assay [5]; more than 30 µM at D(3) dopamine receptor.
Regarding `Cc1nc2ccc(CN(C)c3ccc(C(=O)N[C@@H](CCC(=O)O)C(=O)O)s3)cc2c(=O)[nH]1` [RALTITREXED], the AC50 (in [1]; in assay [2]; on Cannabinoid receptor 1 [3]; on D(1A) dopamine receptor; at Endothelin-1 receptor; on Histamine H1 receptor) was more than 30 µM throughout. The AC50 (in [6]; in [4]; on Melanocortin receptor 3; in [5]; on D(3) dopamine receptor) was more than 30 µM in each case.
On to `C1COC(NC(C2CC2)C2CC2)=N1` [RILMENIDINE], for which the AC50 is more than 30 µM in assay [1]; more than 10 µM in [2]; more than 30 µM at Cannabinoid receptor 1 [7]; more than 10 µM on D(1A) dopamine receptor; more than 10 µM at Histamine H1 receptor; more than 30 µM in assay [6]. Besides, the AC50 in assay [4] is more than 30 µM; at Melanocortin receptor 3 it was more than 30 µM; on Melanocortin receptor 4 it was more than 30 µM; in assay [5], more than 30 µM; at Mu-type opioid receptor, more than 30 µM; on D(3) dopamine receptor it was more than 10 µM.
Turning to `C#CCN[C@@H]1CCc2ccccc21` [RASAGILINE], the AC50 (in assay [1]; in assay [2]; on Cannabinoid receptor 1 [3]; at D(1A) dopamine receptor; on Histamine H1 receptor; in [6]) was more than 30 µM in each case. Further, the AC50 (in [4]; at Melanocortin receptor 3; on Melanocortin receptor 4; in assay [5]; on D(3) dopamine receptor) was more than 30 µM throughout.
On to `CCOC(=O)[C@H](CCc1ccccc1)N[C@H]1CCCN2CCC[C@@H](C(=O)O)N2C1=O` [CILAZAPRIL], for which the AC50 (in [1]; in [2]; on Cannabinoid receptor 1 [7]; at D(1A) dopamine receptor; at Endothelin-1 receptor; at Histamine H1 receptor) was more than 30 µM each time. In addition, the AC50 (in assay [6]; in assay [4]; at Melanocortin receptor 3; at Glucocorticoid receptor; in [5]; on D(3) dopamine receptor) was more than 30 µM each time.
As to `CCOc1cc(N)c([N+](=O)[O-])cc1C(=O)NC1CCN(CC2CC=CCC2)CC1` (stereo not given) [CINITAPRIDE], the AC50 was more than 30 µM in assay [1]; more than 30 µM in [2]; more than 30 µM on Cannabinoid receptor 1 [7]; more than 30 µM at D(1A) dopamine receptor; more than 30 µM on Endothelin-1 receptor; 27 µM at Histamine H1 receptor. Further, the concentration at half-maximal activity (AC50) was more than 30 µM in assay [6]; 0.31 µM in assay [4]; more than 30 µM at Melanocortin receptor 3; more than 30 µM on Glucocorticoid receptor; more than 30 µM in assay [5]; 0.038 µM on D(3) dopamine receptor.
